Data set [1] deals with Staphylococcus aureus (ATCC CRM-6538P).
In data set [2] the test system is Nisin-resistant B. subtilis (DSMZ 347).
Data set [3] deals with Penicillium verrucosum (DSMZ 12639). To be noted: DSMZ 12639, pH 7.
Data set [4] concerns HEK (human normal epidermal keratinocytes). To be noted: 48 h.
The test system of data set [5] is Fusarium graminearum (DSMZ 1095). The settings on record: DSMZ 1095, pH 7.
The subject of data set [6] is Acinetobacter baumannii (CIP 110431).
In data set [7] the test system is Bacillus subtilis (ATCC 6633).
Data set [8] has as its system Helicobacter pylori (ATCC 43504).
Data set [9] deals with A. niger (ATCC 9142). To be noted: ATCC 9142, pH 7.
Data set [10] deals with Clostridium perfringens (ATCC 13124).
The conditions of data set [11]: lipid monolayer on PBS pH 7.4, peptide 1 µM, extrapolated to delta pressure 0; -- = absence of interaction. The method, then:
(§1) Peptide–lipid interaction was evaluated using reconstituted lipid monolayer at the air–water interface as previously described. Pure prokaryotic and eukaryotic lipids used were: POPC (1-palmitoyl-2-oleoyl-glycero-3-phosphocholine), POPE (1-palmitoyl-2-oleoyl-sn-glycero-3-phosphoethanolamine), POPG (1-palmitoyl-2-oleoyl-sn-glycero-3-phospho-(1’-rac-glycerol), and cardiolipin, all from Avanti Polar Lipid (Alabama, USA). LTA (Lipoteichoic acid from B. subtilis) was obtained from Invivogen SAS (Toulouse, France). Pure lipids were reconstituted in chloroform:methanol (2:1, v:v) at 1 mg/mL and stored at −20 °C under nitrogen. The interaction and insertion of the ENN and BEA into lipids were evaluated through the measurement of their critical pressure of insertion as previously described. Briefly, lipids were spread using a 50 µL Hamilton’s syringe at the surface of 800 µL of sterile PBS creating a lipid monolayer at the air–water interface. Lipids were added until the surface pressure reached the desired value. After 5–10 min of incubation allowing evaporation of the solvent and stabilization of the initial surface pressure, 8 µL of ENN or BEA diluted in sterile PBS at 100 µM were injected into the 800 µL sub-phase of PBS under the lipid monolayer (pH 7.4, volume 800 µL) using a 10 µL Hamilton syringe giving a final concentration of peptides of 1 µM, preliminary experiments having shown that this concentration gave optimal insertion. The variation of the surface pressure caused by peptide injection was then continuously monitored using a fully automated microtensiometer (µTROUGH SX, Kibron Inc., Helsinki, Finland) until reaching equilibrium (maximal surface pressure increase being usually obtained after 15–25 min). The critical pressure of insertion of each peptide was determined by changing the initial pressure of lipid monolayer (from 10 and 30 mN/m) and measuring the variation of pressure caused by the insertion of the peptide. The critical pressure of insertion of each peptide in a particular lipid was determined graphically and calculated as the theoretical value of initial pressure of lipid monolayer not permissive to peptide insertion, i.e., causing a variation of pressure equal to 0 mN/m.

For data set [12], the system named is Pseudomonas aeruginosa (ATCC CRM-9027).
The subject of data set [13] is A. ochraceus (DSMZ 824). To be noted: DSMZ 824, pH 7.
The test system of data set [14] is C. perfringens. Type of data set: cell-based, Clostridium perfringens.
Data set [15] deals with N87 (human gastric cell line). The settings on record: 48 h.
The test system of data set [16] is C. perfringens. The data set is classed as cell-based, Clostridium perfringens. The source holds these as a separate data set.
On the set-up of data set [17]: species or system B. subtilis. The settings on record: lipid monolayer on PBS pH 7.4, peptide 1 µM, extrapolated to delta pressure 0; -- = absence of interaction. Here is the method:
as §1

Data set [18] has as its system human erythrocytes. The settings on record: pH 7.4.

Consider 4 compounds from PMC6784244 (Toxins, 2019).

In brackets after ≈: the same amount, converted by molar mass. Several values for one entry are separate records, joined by “and”; a condition that tells them apart may be missing. Equal values may be shown once. Some results are limits rather than exact numbers.

On to `CC[C@H](C)[C@H]1C(=O)O[C@H](C(C)C)C(=O)N(C)[C@@H]([C@@H](C)CC)C(=O)O[C@H](C(C)C)C(=O)N(C)[C@@H]([C@@H](C)CC)C(=O)O[C@H](C(C)C)C(=O)N1C` [ENN A], for which the “MIC, S. aureus” value in data set [1] lay in the range of 6.25 to 12.5 µM. Moreover, the “MIC, B. subtilis NR” value in data set [2] lay in the range of 6.25 to 12.5 µM. Further, the “MIC, P. verrucosum” value in data set [3] is more than 100 µM. Moreover, the IC50 – broadly, the point on the concentration scale where inhibition reaches its midpoint – in data set [4] turned out to be 2000 ± 100 nM. Moreover, in [5], the “MIC, F. graminearum” value turned out to be 25 µM (≈ 17 µg/mL). The “MIC, A. baumannii” value in data set [6] is listed as more than 100 µM. Moreover, the “MIC, B. subtilis” value in [7] was in the range of 6.25 to 12.5 µM. In addition, in data set [8], the “MIC, H. pylori” value is more than 100 µM. Besides, the “MIC, A. niger” value in data set [9] was more than 100 µM. Further, the “MIC, C. perfringens” value in data set [10] is 3.12 µM (≈ 2.13 µg/mL). The “critical pressure of insertion, POPG” value in [11] is reported as 44.75 mN/m. Also, the “MIC, P. aeruginosa” value in data set [12] is reported as more than 100 µM. Further, the “MIC, A. ochraceus” value in data set [13] is more than 100 µM. Besides, in data set [14], the Known/possible target result is on record as “RNA biosynthesis” and the “Observed Morphology” value is listed as “• Some cell elongation • DNA condensed in one filament crossing the cells”. The same compound displayed a half-maximal inhibitory concentration (IC50) in data set [15] of 10 ± 10 nM. In data set [16], the “membrane depolarization at 100 µM” value is on record as 108.9 ± 7.3% and the “membrane depolarization at four times their MIC” value is 80.8 ± 3.2%. In addition, the “critical pressure of insertion, LTA” value in data set [17] is listed as 56.1 mN/m. The “HC50 (dose causing 50% hemolysis), Erythrocytes” value in data set [18] is recorded as 68.7 µM.

For `CC[C@H](C)[C@H]1C(=O)O[C@H](C(C)C)C(=O)N(C)[C@@H]([C@@H](C)CC)C(=O)O[C@H](C(C)C)C(=O)N(C)[C@@H](C(C)C)C(=O)O[C@H](C(C)C)C(=O)N1C` [ENN A1], the “MIC, S. aureus” value in [1] lay within 12.5 to 25 µM. The “MIC, B. subtilis NR” value in [2] is 25 µM (≈ 16.7 µg/mL). For the same compound, the “MIC, P. verrucosum” value in data set [3] is more than 100 µM. In data set [4], this compound yielded an IC50 of 2300 ± 100 nM. In addition, the “MIC, F. graminearum” value in data set [5] was determined as 50 µM (≈ 33.4 µg/mL). The “MIC, A. baumannii” value in [6] is given as more than 100 µM. The “MIC, B. subtilis” value in [7] lay within 12.5 to 25 µM. Also, in data set [8], the “MIC, H. pylori” value is on record as more than 100 µM. Moreover, the “MIC, A. niger” value in data set [9] is listed as more than 100 µM. The “critical pressure of insertion, POPG” value in data set [11] is 41.10 mN/m. Moreover, in data set [12], the “MIC, P. aeruginosa” value is on record as more than 100 µM. The “MIC, A. ochraceus” value in data set [13] is recorded as more than 100 µM. Moreover, in data set [14], the Known/possible target entry was “RNA biosynthesis” and the “Observed Morphology” value is reported as “• No cell elongation • DNA condensed in one filament crossing the cells”. The same compound yielded an IC50 in data set [15] of 3 ± 2 nM. Further, in data set [16], the “membrane depolarization at 100 µM” value turned out to be 97.4 ± 5.3% and the “membrane depolarization at four times their MIC” value stood at 75.3 ± 2.0%. In data set [17], the “critical pressure of insertion, LTA” value was 53.71 mN/m. Besides, the “HC50 (dose causing 50% hemolysis), Erythrocytes” value in data set [18] came to 162.7 ± 22.8 µM.

`CC(C)[C@H]1C(=O)O[C@H](C(C)C)C(=O)N(C)[C@@H](C(C)C)C(=O)O[C@H](C(C)C)C(=O)N(C)[C@@H](C(C)C)C(=O)O[C@H](C(C)C)C(=O)N1C` [ENN B]: the “MIC, S. aureus” value in data set [1] was more than 100 µM. Besides, the “MIC, B. subtilis NR” value in data set [2] was more than 100 µM. Besides, the “MIC, P. verrucosum” value in data set [3] is more than 100 µM. The compound further gave an IC50 in [4] of 54200 ± 35300 nM. In addition, the “MIC, F. graminearum” value in [5] is more than 100 µM. In addition, the “MIC, A. baumannii” value in data set [6] is on record as more than 100 µM. In addition, the “MIC, B. subtilis” value in [7] is given as more than 100 µM. Further, the “MIC, H. pylori” value in data set [8] is recorded as more than 100 µM. Besides, in data set [9], the “MIC, A. niger” value is more than 100 µM. Further, the “MIC, C. perfringens” value in data set [10] worked out at 12.5 µM (≈ 8 µg/mL). Besides, the “critical pressure of insertion, POPG” value in [11] was 34.67 mN/m. The “MIC, P. aeruginosa” value in data set [12] is listed as more than 100 µM. Also, the “MIC, A. ochraceus” value in data set [13] is on record as more than 100 µM. Also, in [14], the Known/possible target entry is listed as “Protein biosynthesis” and the “Observed Morphology” value is “• Some cell elongation (1.5–2 times compared to control) • DNA condensed in 1–4 circles per cells”. The same compound came in with an IC50 in data set [15] of 1700 ± 100 nM. Besides, in data set [16], the “membrane depolarization at 100 µM” value is given as 44.9 ± 8.7%; the “membrane depolarization at four times their MIC” value came to 44.2 ±1.8%; the “membrane depolarization at their MIC” value was 36.4 ± 3.8% and 30–40%. In addition, the “critical pressure of insertion, LTA” value in data set [17] is 38.9 mN/m. For the same compound, the “HC50 (dose causing 50% hemolysis), Erythrocytes” value in data set [18] came out at 534.5 µM.

On to `CC[C@H](C)[C@H]1C(=O)O[C@H](C(C)C)C(=O)N(C)[C@@H](C(C)C)C(=O)O[C@H](C(C)C)C(=O)N(C)[C@@H](C(C)C)C(=O)O[C@H](C(C)C)C(=O)N1C` [ENN B1], for which the “MIC, S. aureus” value in [1] amounted to 25 µM (≈ 16.3 µg/mL). In [2], the “MIC, B. subtilis NR” value worked out at 50 µM (≈ 32.7 µg/mL). For the same compound, the “MIC, P. verrucosum” value in data set [3] was more than 100 µM. Half-maximal inhibition in [4] (IC50) required 3300 ± 500 nM. For the same compound, the “MIC, F. graminearum” value in [5] was determined as 25 µM (≈ 16.3 µg/mL). For the same compound, in data set [6], the “MIC, A. baumannii” value is on record as more than 100 µM. Moreover, the “MIC, B. subtilis” value in [7] was 25 to 50 µM. The “MIC, H. pylori” value in data set [8] is on record as more than 100 µM. Besides, the “MIC, A. niger” value in [9] was more than 100 µM. Also, the “MIC, C. perfringens” value in [10] stood at 6.25 µM (≈ 4.09 µg/mL). For the same compound, the “critical pressure of insertion, POPG” value in data set [11] is reported as 41.71 mN/m. Besides, in data set [12], the “MIC, P. aeruginosa” value is listed as more than 100 µM. Besides, the “MIC, A. ochraceus” value in [13] was more than 100 µM. In data set [14], the Known/possible target entry was “Protein biosynthesis” and the “Observed Morphology” value is listed as “• Some cell elongation (1.5–2 times compared to control) • DNA condensed in 1–4 circles per cells”. Further, in [15], the IC50 was 8 ± 8 nM. For the same compound, in data set [16], the “membrane depolarization at 100 µM” value is recorded as 97.6 ± 9.1%; the “membrane depolarization at four times their MIC” value is listed as 68.0 ± 4.3%; the “membrane depolarization at their MIC” value was 47.4 ± 4.6% and 30–40%. Moreover, in data set [17], the “critical pressure of insertion, LTA” value is reported as 43.62 mN/m. Besides, in [18], the “HC50 (dose causing 50% hemolysis), Erythrocytes” value is 356.4 ± 59.3 µM.
